How the values were obtained:
TRPA1 = tested on: TRPA1; parameters: method as in PMID 17686976, PMID 18954467; conditions: TRPA1-mediated calcium flux ref 46, 47; cited from earlier work
guinea-pig lung slices = assay: TRPA1 agonism in lung slices (airway narrowing, histamine release); conditions: data not shown
Procedure: Lung slices were used for OA and histamine induced airway narrowing studies. In order to do this, lung slices were placed in 1 ml medium and fixed with a plastic ring. After 30 min pre-treatment with the TRPA1 antagonist BI01305834 (0.01, 0.1, 1 or 10 µM) or the vehicle (10% cyclodextrin) OA (10^–5-10^2 µg.ml^−1) or histamine (10^–8-10^–2 M) dose–response curves were established. Using a microscope (Eclipse, TS100; Nikon) time-lapse images (1 frame per 2 s) of the lung slices were captured. The airway luminal area was quantified using image acquisition software (NIS-elements; Nikon) and expressed as percentage of basal area, as described previously.
Lung slices were used for OA-induced histamine determinations, with separate slices for each condition individually. BI01305834 and vehicle pre-treated lung slices were challenged with OA (10 µg.ml^−1) for 5 min. […] Histamine levels of original supernatant and homogenized lung slice supernatant were assessed by liquid chromatography in combination with isotope dilution tandem mass spectrometry (LC–MS/MS). […] Inter-assay imprecision (n = 20 days) was < 2.9% at three different levels (60, 986, 3873 nM, respectively) and limit of quantification was 3.0 nM. Histamine release was calculated as percentage of total histamine present in both supernatant and slice. […]

SMILES | IC50 (TRPA1) [µM] | induction of airway narrowing (guinea-pig lung slices) | induction of histamine release (guinea-pig lung slices)
CC(C)c1ccc(NC(=O)Cn2cnc3c2c(=O)n(C)c(=O)n3C)cc1 [HC030031] | 6.2 to 7.5 | – | –
C=CCN=C=S [AITC, allyl isothiocyanate] | – | unable to induce | unable to induce
